By IC50 is commonly meant the concentration that inhibits the measured activity by half.

Assay type in all cases: cell-based
The target of test [1] is T1, NLRP3 inflammasome (Homo sapiens, UniProt Q96P20). Description: NLRP3 inflammasome activation assay in PBMCs, IL-1β release (ELISA / HTRF). Also noted: were freshly isolated from human peripheral blood from healthy donors; StemCells Technologies; host or cells: primary human PBMCs, LPS-primed, nigericin-stimulated. Conditions: LPS primed. On the procedure:
Some of the following assays were used to determine the inhibitory activity of the compounds on the NLRP3 inflammasome using a common inflammasome activation stimuli—nigericin.
(§1) Human peripheral blood mononuclear cells (PBMCs), consisting of lymphocytes (T, B and NK cells), monocytes and dendritic cells, were freshly isolated from human peripheral blood from healthy donors. Cells were obtained through an IRB approved donor program by iXCells Biotechnologies where all the donors were tested for bacterial and viral infections. Cells were purified from peripheral blood using ficoll gradient centrifugation.
(§2) Fresh or cryopreserved PMBCs were seeded in V-bottom 96-well plate at 0.5-1×10^5 cells per well and incubated overnight at 37° C. with 5% CO2 in RPMI 1640 medium with GlutaMAX supplement, 4.5 g/L D-glucose, 10% Fetal Bovine Serum (FBS), […] Sodium Pyruvate, 1% Penicillin/Streptomycin, 10 mM HEPES and 0.05 mM of β-mercaptoethanol. Freshly isolated or cryopreserved KCs cells were seeded in flat-bottom 96-well plates at 0.6-1.5×10^5 cells/well and incubated overnight at 37° C. 5% CO2 in RPMI 1640 Medium with GlutaMAX supplement, FBS, 1% Penicillin/Streptomycin and 10 mM HEPES. The following day, the cells were primed with 100 ng/mL of lipopolysaccharides (LPS; Sigma Aldrich) in FBS-free RPMI 1640 for 3 h. After the priming step, the media was removed and PBMCs were pre-incubated with serial concentrations of test compounds (0.00017-10 uM) or vehicle (DMSO) for 30 min in FBS-free media prior to addition of the NLRP3 activator. Cells were then stimulated with 10 uM Nigericin (Sigma Aldrich; InvivoGen) for 1.5 h. Plates were centrifuged at 1,500 rpm for 3 minutes to pellet cells and supernatant was transferred into new plates for subsequent experiments.
(§3) For ELISA assays cells were seeded into 96-well plates. Post study, supernatants were removed and the levels of mature IL-1β, IL18 and TNFα (Quantikine ELISA, R&D systems) were measured in cell conditioned media by ELISA according to manufacturer's instructions.
Human frozen PBMCs were purchased from StemCells Technologies. Cells were rapidly thawed in 37° C. water bath and resuspended in fresh assay media consisting of RPMI 1640 Medium containing 1% sodium pyruvate, 10 mM HEPES, 2.5 g/L glucose and 55 μM 2-Mercaptoethanol. Cell density was adjusted to 8.1×10^5 cells/mL. Cells were primed by adding lipopolysaccharide (Invivogen Ultrapure lipopolysaccharide from E. coli, tlrl-3pelps) at a final concentration of 100 ng/mL in cell suspension. 37 μL of cell suspension with LPS was seeded per well of a 384 well plate and incubated for 3 hours at 37° C. and 5% CO2. After priming, PBMCs were preincubated with serially diluted test compounds with starting concentration of 40 μM followed by 2-fold dilution for a 20-point curve or vehicle (DMSO) for 30 min in assay media at 37° C. and 5% CO2. Cells were then stimulated with 10 μM nigericin (Invivogen, tlrl-nig-5) for 90 min at 37° C. and 5% CO2 to activate NLRP3 dependent inflammasome pathway and IL-1β release in cell culture supernatant. Cells were centrifuged at 1200 RPM for 1 min and 40 μL of supernatant was transferred into fresh plates and stored at −80° C. until IL-1β analysis.
16 μL of supernatant was added to white 384 well HTRF plates, followed by addition of 4 μL of HTRF cocktail in each well. Plates were quickly centrifuged, sealed and incubated overnight at room temperature. Next day, HTRF signal was read on a Pherastar and ratio of 665/620 was calculated based on manufacturer's protocol to obtain concentration of IL-1β in cell culture supernatant.
On the technique in general: ELISA stands for enzyme-linked immunosorbent assay.

Test [2] deals with TNFα. Description: TNFα counter-screen in LPS and nigericin stimulated PBMCs. Conditions: human PBMCs. On the procedure:
as §1, §2, §3
TNFα levels of LPS and nigericin stimulated cells were measured by HTRF assay (Cisbio, Bedford, MA). […] Measuring TNFalpha production also serves as a technical counter-screen to eliminate compounds that interfere with the HTRF reagents. Thus compounds that inhibit both IL-1β and TNFα levels are triaged for either being non-selective for inflammasome or interfering with the HTRF readout.

For test [3], the system named is PBMCs. Description: CTG (CellTiter-Glo) viability assay in PBMCs. The note with it: LPS and nigericin stimulated. How it is done:
as §1, §2
Viability of compound treated cells was measured using CellTiter-Glo® assay (Promega, Madison, Wis.) that measures the ATP content of cells which is proportional to the number of live cells within a well. This is a counter-screen to establish that the reduction of IL-1β levels in LPS and nigericin stimulated and compound treated cells is not due to cytotoxicity, but rather through the inhibition of the inflammasome pathway. Compounds inhibiting NRLP3 inflammasome activation ultimately increase the viability of LPS and nigericin stimulated cells by blocking NLRP3 mediated pyroptosis that would otherwise lead to cell lysis.

Test [4] addresses T1, NLRP3 inflammasome. Briefly: THP-1 ASC-GFP speck assay. More on the design: host or cells: THP-1 ASC-GFP cells, PMA-differentiated, LPS-primed, nigericin-stimulated. The note with it: THP-1 ASC-GFP cells, PMA differentiated, LPS primed, 10 μM nigericin; read-out: THP1 ASC Speck IC50. The essentials:
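PMA-differentiated (500 ng/ml, overnight) THP-1 ASC-GFP cells primed with 1 μg/mL LPS for 3 h, preincubated 30 min with compound (top 40 μM, 2-fold, 20 points), then stimulated with 10 μM nigericin for 90 min at 37 °C. After fixation and Hoechst staining, imaging gave the percentage of cells bearing a GFP ASC speck.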

Setting [5] is: 10 uM nigericin, read-out: PBMC IL-1 β IC50.
The mark [6] stands for this setting: PBMC, read-out: PBMC TNF α IC50.
Setting [7] is: human PBMCs, read-out: PBMC CTG IC50.
[8] abbreviates: 10 μM nigericin, read-out: PBMC IL-1β IC50.

Molecules are shown by their SMILES. Where two headings read alike, the source gives them in different places. Bounds are passed on as bounds.

T1 sequence (Q96P20 whole entry): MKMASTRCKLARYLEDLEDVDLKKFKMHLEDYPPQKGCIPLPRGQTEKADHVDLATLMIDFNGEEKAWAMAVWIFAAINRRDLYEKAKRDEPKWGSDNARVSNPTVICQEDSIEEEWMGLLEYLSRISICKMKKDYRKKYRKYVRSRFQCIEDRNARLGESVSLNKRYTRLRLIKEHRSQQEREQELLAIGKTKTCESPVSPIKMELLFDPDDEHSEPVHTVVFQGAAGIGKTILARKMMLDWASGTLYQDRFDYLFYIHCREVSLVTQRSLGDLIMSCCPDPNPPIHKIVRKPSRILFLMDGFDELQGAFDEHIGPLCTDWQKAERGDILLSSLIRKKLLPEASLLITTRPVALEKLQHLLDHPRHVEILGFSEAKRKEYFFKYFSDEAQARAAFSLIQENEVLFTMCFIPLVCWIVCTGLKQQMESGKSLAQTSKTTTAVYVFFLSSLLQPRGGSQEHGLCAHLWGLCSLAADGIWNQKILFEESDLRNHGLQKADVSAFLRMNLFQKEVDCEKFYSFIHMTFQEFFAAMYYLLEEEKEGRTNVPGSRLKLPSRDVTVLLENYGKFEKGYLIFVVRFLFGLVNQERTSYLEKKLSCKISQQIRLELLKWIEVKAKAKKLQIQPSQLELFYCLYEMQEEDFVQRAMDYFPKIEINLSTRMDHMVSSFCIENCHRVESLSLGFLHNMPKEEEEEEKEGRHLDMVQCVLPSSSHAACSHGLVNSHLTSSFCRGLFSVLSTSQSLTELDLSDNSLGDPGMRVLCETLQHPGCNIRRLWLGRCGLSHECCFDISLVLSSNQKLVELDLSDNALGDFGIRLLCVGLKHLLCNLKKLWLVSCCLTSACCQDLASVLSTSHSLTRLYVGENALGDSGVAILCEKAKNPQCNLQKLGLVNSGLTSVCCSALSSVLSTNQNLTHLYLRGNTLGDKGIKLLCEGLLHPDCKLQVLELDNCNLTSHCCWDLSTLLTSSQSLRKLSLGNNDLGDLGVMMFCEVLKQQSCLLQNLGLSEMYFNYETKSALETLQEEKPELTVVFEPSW

On to `CO[C@@H]1COc2c(S(=N)(=O)NC(=O)Nc3c4c(c(F)c5c3CCC5)CCC4)cnn2C1` (stereo partly shown) [drawing 666], for which the IC50 in test [1] (setting [5]) is < 100 nM; in test [2] (setting [6]) it was > 10000 nM; in test [3] (Homo sapiens, PBMC), < 100 nM.
`CO[C@@H]1COc2c(S(=N)(=O)NC(=O)Nc3c4c(c(F)c5c3CCC5)CCC4)cnn2C1` (stereo partly shown) [drawing 680]: the half-inhibitory concentration (IC50) was < 100 nM in test [1] (setting [5]), > 10000 nM in test [2] (read-out: PBMC TNF α IC50) and < 100 nM in test [3] (setting [7]).
As to `CNC1COc2c(S(N)(=O)=NC(=O)Nc3c4c(c(F)c5c3CCC5)CCC4)cnn2C1` (single isomer, unassigned) [Example 40], the 50% inhibitory concentration (IC50) in test [1] (setting [8]) came out at 4.9 nM; in test [4] it was 8.8 nM; in test [3] (setting [7]), 3 nM.
In the case of `CO[C@@H]1COc2c(S(N)(=O)=NC(=O)Nc3c4c(c(F)c5c3CCC5)CCC4)cnn2C1` (mixture of isomers) [Example 18, (6S)—N′-((8-fluoro-1,2,3,5,6,7-hexahydro-s-indacen-4-yl)carbamoyl)-6-methoxy-6,7-dihydro-5H-pyrazolo[5,1-b][1,3]oxazine-3-sulfonimidamide], the 50% inhibitory concentration (IC50) in test [1] (setting [8]) was 16 nM; in test [2] (PBMC) it was > 10000 nM; in test [3] (Homo sapiens, PBMC) it was 0.1 nM.
`CNC1COc2c(S(N)(=O)=NC(=O)Nc3c4c(c(F)c5c3CCC5)CCC4)cnn2C1` (single isomer, unassigned) [Example 41]: the half-inhibitory concentration (IC50) in test [1] (setting [8]) turned out to be 6800 nM; in test [4] it was 430 nM; in test [3] (setting [7]), 1310 nM.
Turning to `NS(=O)(=NC(=O)Nc1c2c(cc3c1CCC3)CCC2)c1cnn2c1OCCC2` (single isomer, unassigned) [drawing 661], the IC50 in test [1] (setting [5]) is < 100 nM; in test [2] (setting [6]) it was > 10000 nM; in test [3] (Homo sapiens, PBMC), < 100 nM.
Take `NS(=O)(=NC(=O)Nc1c2c(c(F)c3c1CCC3)CCC2)c1cnn2c1OCCC2` (single isomer, unassigned) [Example 21]: the figures for the concentration for half-maximal inhibition (IC50) in test [1] (setting [8]), in test [2] (PBMC) and in test [3] (setting [7]) were 4720 nM, > 10000 nM and 1050 nM, respectively.
On to `CN[C@@H]1COc2c(S(N)(=O)=NC(=O)Nc3c4c(cc5c3CCC5)CCC4)cnn2C1` (mixture of isomers) [Example 17, (6S)—N′-((1,2,3,5,6,7-hexahydro-s-indacen-4-yl)carbamoyl)-6-(methylamino)-6,7-dihydro-5H-pyrazolo[5,1-b][1,3]oxazine-3-sulfonimidamide], for which the IC50 was 19 nM in test [1] (setting [8]); > 10000 nM in test [2] (PBMC); 8 nM in test [3] (Homo sapiens, PBMC).
On to `CO[C@@H]1COc2c(S(=N)(=O)NC(=O)Nc3c(C(C)C)cc(F)cc3C(C)C)cnn2C1` (stereo partly shown) [drawing 663], for which the IC50 is 100 to 1000 nM in test [1] (setting [5]); > 10000 nM in test [2] (setting [6]); < 100 nM in test [3] (Homo sapiens, PBMC).
Take `COC1COc2c(S(N)(=O)=NC(=O)Nc3c(C(C)C)cc(F)cc3C(C)C)cnn2C1` (single isomer, unassigned) [Example 23]: the results for the half-maximal inhibitory concentration (IC50) in test [1] (setting [8]), in test [2] (PBMC) and in test [3] (setting [7]) were 8820 nM, > 10000 nM and 39 nM, respectively.
As to `CN(C)C1COc2c(S(N)(=O)=NC(=O)Nc3c4c(cc5c3CCC5)CCC4)cnn2C1` (single isomer, unassigned) [Example 34], the IC50 was 6 nM in test [1] (setting [8]), > 10000 nM in test [2] (read-out: PBMC TNFα IC50) and 4 nM in test [3] (setting [7]).
On to `CO[C@@H]1COc2c(S(=N)(=O)NC(=O)Nc3c4c(cc5c3CCC5)CCC4)cnn2C1` (stereo partly shown) [drawing 667], for which the half-inhibitory concentration (IC50) is 100 to 1000 nM in test [1] (setting [5]); > 10000 nM in test [2] (setting [6]); 100 to 1000 nM in test [3] (Homo sapiens, PBMC).
For the molecule `CN[C@@H]1COc2c(S(=N)(=O)NC(=O)Nc3c(C(C)C)cc(F)cc3C(C)C)cnn2C1` (single isomer, unassigned) [drawing 675], the 50% inhibitory concentration (IC50) in test [1] (setting [5]) was 100 to 1000 nM; in test [2] (setting [6]) it was > 10000 nM; in test [3] (Homo sapiens, PBMC) it was > 10000 nM.
On to `NS(=O)(=NC(=O)Nc1c2c(c(F)c3c1CCC3)CCC2)c1cnn2c1OCCC2` (single isomer, unassigned) [Example 22], for which the IC50 worked out at 95 nM in test [1] (setting [8]), 150 nM in test [4] and 66 nM in test [3] (setting [7]).
On to `COC1CN(C2COc3c(S(N)(=O)=NC(=O)Nc4c5c(cc6c4CCC6)CCC5)cnn3C2)C1` (single isomer, unassigned) [Example 38], for which the values for the IC50 in test [1] (setting [8]), in test [4] and in test [3] (setting [7]) were 2030 nM, 1500 nM and 1160 nM, respectively.
As to `NS(=O)(=NC(=O)Nc1c2c(c(C(=O)O)c3c1CCC3)CCC2)c1cnn2c1OCCC2` (racemic) [Example 37, 8-(3-(6,7-dihydro-5H-pyrazolo[5,1-b][1,3]oxazine-3-sulfonimidoyl)ureido)-1,2,3,5,6,7-hexahydro-s-indacene-4-carboxylic acid], the concentration for half-maximal inhibition (IC50) was > 10000 nM in test [1] (setting [8]); > 20000 nM in test [4]; > 10000 nM in test [3] (Homo sapiens, PBMC).
For the molecule `CNC1COc2c(S(N)(=O)=NC(=O)Nc3c(C(C)C)cc(F)cc3C(C)C)cnn2C1` (single isomer, unassigned) [Example 28], the values for the IC50 in test [1] (setting [8]), in test [4] and in test [2] (read-out: PBMC TNFα IC50) were > 10000 nM, 4400 nM and > 10000 nM, respectively.
On to `NS(=O)(=NC(=O)Nc1c2c(cc3c1CCC3)CCC2)c1cnn2c1OCC(NCCF)C2` (single isomer, unassigned) [Example 36], for which the IC50 in test [1] (setting [8]) was 50 nM; in test [4], 66 nM; in test [3] (setting [7]), 170 nM.
Consider `CN[C@@H]1COc2c(S(=N)(=O)NC(=O)Nc3c(C(C)C)cc(F)cc3C(C)C)cnn2C1` (single isomer, unassigned) [drawing 676], for which the IC50 in test [1] (setting [5]) and in test [2] (read-out: PBMC TNF α IC50) was > 10000 nM in each case.
Consider `CC1(C)COc2c(S(N)(=O)=NC(=O)Nc3c4c(cc5c3CCC5)CCC4)cnn2C1` (racemic) [Example 6, N′-((1,2,3,5,6,7-hexahydro-s-indacen-4-yl)carbamoyl)-6,6-dimethyl-6,7-dihydro-5H-pyrazolo[5,1-b][1,3]oxazine-3-sulfonimidamide], for which the IC50 in test [1] (setting [8]) worked out at 14 nM; in test [3] (Homo sapiens, PBMC) it was 3 nM.
As to `CC(C)c1cc(F)cc(C(C)C)c1NC(=O)N=S(N)(=O)c1cnn2c1OCCC2` (single isomer, unassigned) [Example 8], the results for the half-maximal inhibitory concentration (IC50) in test [1] (setting [8]), in test [4] and in test [3] (setting [7]) were 1000 nM, 9400 nM and 2 nM, respectively.

These data come from patent US12234245B2, “Sulfonimidamide compounds as inhibitors of interleukin-1 activity” (Genentech, Inc., priority 2018, dated 2025).
